Measurements as given in the supplement of paper PMC7455731.

Assay: collision cross section (DTIM-MS, N2); higher = larger ion
Procedure: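 Collision cross section (CCS) of drug and natural-product chemical standards (validation set 2, measured in this paper). Three independent measurements were made across 2 months; the value taken is their mean (avg_ccs), for the ion adduct given.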

Row | SMILES | collision cross section (ion adduct: [M+H]+) [Å²] | collision cross section (ion adduct: [M-H]-) [Å²]
1 | COc1cc(/C=C/C(=O)O)cc(OC)c1OC [3,4,5-Trimethoxycinnamic acid] |  | 167.91
2 | COc1cc(C2c3cc4c(cc3C(O)C3COC(=O)C23)OCO4)cc(OC)c1O (stereo not given) [4'-Demethylpodophyllotoxin] | 195.99 | 197.38
3 | O=C(C=Cc1ccc(O)c(O)c1)OC1CC(O)(C(=O)O)CC(O)C1OC(=O)C=Cc1ccc(O)c(O)c1 (stereo not given) [4,5-Dicaffeoylquinic acid] |  | 213.46
4 | Cc1cc(=O)oc2cc(O)c(O)cc12 [4-Methyl-6,7-dihydroxycoumarin] | 136.8 | 135.33
5 | O=c1cc(-c2ccccc2)c2ccc(O)c(O)c2o1 [7,8-Dihydroxy-4-phenylcoumarin] | 156.5 | 157.01
6 | COC(=O)C1=CO[C@@H](O[C@@H]2O[C@H](CO)[C@@H](O)[C@H](O)[C@H]2O)[C@H]2[C@@H]1[C@H](O)C[C@]2(C)OC(C)=O [8-O-Acetylshanzhiside methyl ester] |  | 208.19
7 | CCCCCCCCC[C@H](O)CC(=O)CCc1ccc(O)c(OC)c1 [10-Gingerol] |  | 188
8 | CC(C)(C)[C@]1(O)C[C@@H]2OC(=O)C[C@@]23C(=O)O[C@@H]2OC(=O)[C@H](O)[C@]213 [(-)-Bilobalide] |  | 162.4
9 | CC(=O)Nc1nnc(S(N)(=O)=O)s1 [Acetazolamide] | 142.71 | 138.64
10 | O=C(C=CC=Cc1ccccc1)CCc1ccccc1 [Alnustone] | 168.73 | 178.13
11 | C=CC[C@]1(O)CC[C@H]2[C@@H]3CCC4=CC(=O)CCC4=C3C=C[C@@]21C [Altrenogest] | 178.86 | 180.56
12 | COc1cc(NS(C)(=O)=O)ccc1Nc1c2ccccc2nc2ccccc12 [Amsacrine] | 195.94 | 199.97
13 | N#C[C@H](O[C@@H]1O[C@H](CO[C@@H]2O[C@H](CO)[C@@H](O)[C@H](O)[C@H]2O)[C@@H](O)[C@H](O)[C@H]1O)c1ccccc1 [Amygdalin] | 214.69 | 205.69
14 | COc1ccc(C[C@H]2NC[C@H](O)[C@H]2OC(C)=O)cc1 [Anisomycin] | 164.18 | 
15 | O=C1C(O)=C([C@H]2CC[C@H](c3ccc(Cl)cc3)CC2)C(=O)c2ccccc21 [Atovaquone] |  | 193.52
16 | O=C(Nc1ccccc1)c1ccccc1I [Benodanil] | 152.62 | 156.05
17 | COc1c2ccoc2cc2oc(=O)ccc12 [Bergapten] | 139.92 | 

Row | SMILES | collision cross section (ion adduct: [M+H]+) [Å²] | collision cross section (ion adduct: [M-H]-) [Å²]
18 | O=C(/C=C/c1ccc(O)c(O)c1)OCCc1ccccc1 [Caffeic acid phenethyl ester] |  | 176.94
19 | CNC(=O)Oc1cccc2ccccc12 [Carbaryl] |  | 144.36
20 | COC(=O)Nc1nc2ccccc2[nH]1 [Carbendazim] | 138.81 | 
21 | O=c1ccc2ccccc2o1 [Coumarin] | 124.69 | 
22 | CC1(C)CC[C@]2(C(=O)O)CC[C@]3(C)C(=CC[C@@H]4[C@@]5(C)C[C@@H](O)[C@H](O)C(C)(C)[C@@H]5CC[C@]43C)[C@@H]2C1 [Crategolic acid] |  | 222.53
23 | CC(/C=C/C=C(\C)C(=O)O[C@@H]1O[C@H](CO)[C@@H](O)[C@H](O)[C@H]1O)=C\C=C\C=C(C)\C=C\C=C(/C)C(=O)O[C@@H]1O[C@H](CO[C@@H]2O[C@H](CO)[C@@H](O)[C@H](O)[C@H]2O)[C@@H](O)[C@@H](O)[C@H]1O [Crocin II] |  | 280.87
24 | CC(/C=C/C=C(\C)C(=O)O[C@@H]1O[C@H](CO[C@@H]2O[C@H](CO)[C@@H](O)[C@H](O)[C@H]2O)[C@@H](O)[C@H](O)[C@H]1O)=C\C=C\C=C(C)\C=C\C=C(/C)C(=O)O[C@@H]1O[C@H](CO[C@@H]2O[C@H](CO)[C@@H](O)[C@H](O)[C@H]2O)[C@@H](O)[C@H](O)[C@H]1O [Crocin] |  | 310.8
25 | C[C@H]1C(=O)O[C@@H]2CCN3CC=C(COC(=O)[C@](C)(O)[C@]1(C)O)[C@H]23 [Crotaline] | 176.34 | 
26 | Nc1nc(N)nc(NC2CC2)n1 [Cyromazine] | 135.92 | 
27 | CCCCCCCCOC(=O)c1ccccc1C(=O)OCCCCCCCC [DI-N-OCTYL PHTHALATE] | 211 | 
28 | CN(C)NC(=O)CCC(=O)O [Daminozide] |  | 135.88
29 | CC(C)=CC(=O)OC1Cc2cc3ccc(=O)oc3cc2OC1(C)C (stereo not given) [Decursin] | 185.63 | 180.82
30 | COc1cc(C=CC(=O)CC(=O)C=Cc2ccc(O)cc2)ccc1O [Demethoxycurcumin] | 193.33 | 
31 | COC1=CC(=O)O[C@@H](CCc2ccccc2)C1 [Dihydrokavain] | 149.11 | 
32 | C[C@H]1CC[C@]2(OC1)O[C@H]1C[C@H]3[C@@H]4CC=C5C[C@@H](O[C@@H]6O[C@H](CO)[C@@H](O[C@@H]7O[C@@H](C)[C@H](O)[C@@H](O)[C@H]7O)[C@H](O)[C@H]6O[C@@H]6O[C@@H](C)[C@H](O)[C@@H](O)[C@H]6O)CC[C@]5(C)[C@H]4CC[C@]3(C)[C@H]1[C@@H]2C [Dioscin] | 330.49 | 324.15
33 | C[C@H]1CC[C@]2(OC1)O[C@H]1C[C@H]3[C@@H]4CC=C5C[C@@H](O)CC[C@]5(C)[C@H]4CC[C@]3(C)[C@H]1[C@@H]2C [Diosgenin] | 209.65 | 

Further lines, results first:

Row | collision cross section (ion adduct: [M+H]+) [Å²] | collision cross section (ion adduct: [M-H]-) [Å²] | SMILES
34 | 138.93 |  | CC1(C)CCC[C@@]2(C)OC(=O)C=C12
35 | 136.89 | 135.28 | Cc1cc(=O)oc2cc(O)cc(O)c12 [5,7-Dihydroxy-4-methylcoumarin]
36 |  | 170.04 | CCCCC[C@H](O)CC(=O)CCc1ccc(O)c(OC)c1 [6-Gingerol]
37 |  | 135.48 | Cc1cc(=O)oc2ccc(O)cc12 [6-Hydroxy-4-methylcoumarin]
38 | 129.59 | 129.61 | O=c1ccc2cc(O)ccc2o1 [6-Hydroxycoumarin]
39 |  | 167.21 | CCCCCC=CC(=O)CCc1ccc(O)c(OC)c1 [6-Shogaol]
40 | 131.39 |  | COc1ccc2ccc(=O)oc2c1 [7-Methoxycoumarin]
41 | 144.57 |  | Cc1cc(=O)oc2c([N+](=O)[O-])c(O)ccc12 [7-hydroxy-4-methyl-8-nitrocoumarin]
42 |  | 178.08 | CCCCCCCC(O)CC(=O)CCc1ccc(O)c(OC)c1 (stereo not given) [8-Gingerol]
43 |  | 222.94 | CC(C)=CCC[C@](C)(O)[C@H]1CC[C@]2(C)[C@@H]1[C@H](O)C[C@@H]1[C@@]3(C)CC[C@H](O)C(C)(C)[C@@H]3CC[C@]12C [(20S)-Protopanaxdiol]
44 | 174.96 | 185.72 | CC(C)C1=CC2=CC[C@@H]3[C@](C)(CCC[C@@]3(C)C(=O)O)[C@H]2CC1 [Abietic acid]
45 |  | 133.81 | COc1cc(C(C)=O)ccc1O [Acetovanillone]
46 | 149.17 | 148.31 | Nc1nc2c(ncn2COCCO)c(=O)[nH]1 [Aciclovir]
47 |  | 132.47 | OC[C@@H](O)[C@@H](O)[C@@H](O)[C@@H](O)CO [Allitol]
48 | 160.76 |  | COc1cc(O)cc2c1C(=O)C[C@@H](c1ccccc1)O2 [Alpinetin]
49 |  | 220.58 | COc1ccc(C[C@H]2COC(=O)[C@@H]2Cc2ccc(O[C@@H]3O[C@H](CO)[C@@H](O)[C@H](O)[C@H]3O)c(OC)c2)cc1OC [Arctiin]
50 |  | 185.75 | C[C@H]1[C@H](OC(=O)CCC(=O)O)O[C@@H]2O[C@@]3(C)CC[C@H]4[C@H](C)CC[C@@H]1[C@@]24OO3 [Artesunate]
51 | 230.49 | 221.44 | COc1ccc(-c2cc(=O)c3c(O)cc(O)cc3o2)cc1-c1c(O)cc(O)c2c(=O)cc(-c3ccc(O)cc3)oc12 [Bilobetin]
52 |  | 169.35 | Oc1c(Cl)cc(Cl)cc1Sc1cc(Cl)cc(Cl)c1O [Bithionol]
53 | 207.91 | 200.74 | O=C(Nc1nc(-c2ccc(O)c(O)c2)c(-c2ccccc2)s1)c1ccc(O)c(O)c1 [COH29]
54 | 164.02 | 167.35 | COc1cc(O)cc(O)c1C(=O)/C=C/c1ccccc1 [Cardamonin]
55 |  | 166.95 | O=C(N[C@H](CO)[C@H](O)c1ccc([N+](=O)[O-])cc1)C(Cl)Cl [Chloramphenicol]
56 | 157.98 | 158.46 | Nc1ccn(C[C@@H](CO)OCP(=O)(O)O)c(=O)n1 [Cidofovir]
57 | 158.19 | 162.03 | Nc1nc(Cl)nc2c1ncn2[C@@H]1O[C@H](CO)[C@@H](O)[C@@H]1F [Clofarabine]
58 |  | 151.89 | Nc1ccn([C@@H]2O[C@H](CO)[C@@H](O)[C@@H]2O)c(=O)n1 [Cytarabine]
59 | 248.03 | 259.6 | COc1cc2c(cc1OC)C(Cc1ccc(Oc3cc(CC4c5cc(OC)c(OC)cc5CCN4C)ccc3O)cc1)N(C)CC2 (stereo not given) [Dauricine]
60 | 196.5 | 198.36 | COc1cc2c(cc1OC)[C@@H]1C(=O)c3ccc4c(c3O[C@@H]1CO2)C=CC(C)(C)O4 [Deguelin]
61 | 127.62 |  | Cc1ncc([N+](=O)[O-])n1C [Dimetridazole]
62 | 167.45 | 171.54 | COc1cc(O)ccc1/C=C/C(=O)c1ccc(O)cc1 [Echinatin]
